# Reference: ChEMBL document CHEMBL1221313, “Synthesis of pyrrolomorphinan derivatives as kappa opioid agonists” (Bioorg Med Chem Lett, 2010)
# pIC50, pKi: −log10 of the molar value.
# Experiments:
# [1] = biological target: Opioid receptor (mu and kappa) (Cavia porcellus) (UniProt P41144+P97266); experiment: Selectivity ratio of Ki for mu opioid receptor in guinea pig forebrain to Ki for kappa opioid receptor in guinea pig cerebellum; assay type: tissue-based
# [2] = Displacement of [3H]NTI from delta opioid receptor in guinea pig forebrain; set-up: species or system Cavia porcellus
# [3] = biological target: Mu-type opioid receptor (Cavia porcellus, UniProt P97266); experiment: Displacement of [3H]DAMGO from mu opioid receptor in guinea pig forebrain
# [4] = biological target: Kappa-type opioid receptor (Cavia porcellus, UniProt P41144); experiment: Displacement of [3H]U69593 from kappa opioid receptor in guinea pig cerebellum; assay type: tissue-based
# [5] = organism: Cavia porcellus; experiment: Selectivity ratio of Ki for delta opioid receptor in guinea pig forebrain to Ki for kappa opioid receptor in guinea pig cerebellum; assay type: tissue-based
# [6] = tested on: Mus musculus; experiment: Antinociceptive activity in sc dosed mouse assessed as effect on acetic acid-induced writhing; assay type: functional
# Sequence of Mu-type opioid receptor (P97266 whole entry): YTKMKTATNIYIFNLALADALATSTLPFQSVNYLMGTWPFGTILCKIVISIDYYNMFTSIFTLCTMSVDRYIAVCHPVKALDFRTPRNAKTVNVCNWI
# Sequence of Kappa-type opioid receptor (P41144 whole entry): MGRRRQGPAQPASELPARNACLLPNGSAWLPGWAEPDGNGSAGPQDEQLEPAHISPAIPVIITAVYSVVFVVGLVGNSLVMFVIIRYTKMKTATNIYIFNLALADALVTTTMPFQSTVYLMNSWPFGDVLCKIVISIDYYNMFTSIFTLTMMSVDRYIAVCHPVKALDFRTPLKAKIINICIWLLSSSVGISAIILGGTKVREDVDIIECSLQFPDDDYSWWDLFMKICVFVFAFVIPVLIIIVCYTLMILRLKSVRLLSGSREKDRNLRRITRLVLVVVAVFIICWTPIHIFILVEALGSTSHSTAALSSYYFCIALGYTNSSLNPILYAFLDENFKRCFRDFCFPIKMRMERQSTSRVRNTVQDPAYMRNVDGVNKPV
# Sequence of Opioid receptor (mu and kappa) (Cavia porcellus) (P41144 whole entry, looked up): as the sequence (P41144 whole entry) above
# Sequence of Opioid receptor (mu and kappa) (Cavia porcellus) (P97266 whole entry, looked up): as the sequence (P97266 whole entry) above
SMILES,Ratio Ki [1],pIC50 [2],pKi [3],pKi [4],Ratio Ki [5],pKi [2],Activity [6],ED50 [6] [mg/kg]
Cn1c(/C=C/c2ccccc2)cc2c1[C@@H]1Oc3c(O)ccc4c3[C@@]13CCN(CC1CC1)[C@H](C4)[C@]3(O)C2,0.5,< 6.00,8.75,8.42,,,,
Cn1c(/C=C/C(=O)c2ccccc2)cc2c1[C@@H]1Oc3c(O)ccc4c3[C@@]13CCN(CC1CC1)[C@H](C4)[C@]3(O)C2,8.1,,8.42,9.33,8,8.43,,
CCC/C=C/c1cc2c(n1C)[C@@H]1Oc3c(O)ccc4c3[C@@]13CCN(CC1CC1)[C@H](C4)[C@]3(O)C2,0.8,,8.23,8.13,0.9,8.18,,
CCCCCC(=O)/C=C/c1cc2c(n1C)[C@@H]1Oc3c(O)ccc4c3[C@@]13CCN(CC1CC1)[C@H](C4)[C@]3(O)C2,12,,7.82,8.91,2.9,8.45,Dose-dependent effect,5.87
Cn1c(CCC(=O)CCc2ccccc2)cc2c1[C@@H]1Oc3c(O)ccc4c3[C@@]13CCN(CC1CC1)[C@H](C4)[C@]3(O)C2,1.6,,9.26,9.47,4.6,8.80,,
Cn1c(/C=C/C(=O)CCc2ccccc2)cc2c1[C@@H]1Oc3c(O)ccc4c3[C@@]13CCN(CC1CC1)[C@H](C4)[C@]3(O)C2,7.4,,8.16,9.03,1.9,8.76,,
Cn1c(/C=C/C(=O)Cc2ccccc2)cc2c1[C@@H]1Oc3c(O)ccc4c3[C@@]13CCN(CC1CC1)[C@H](C4)[C@]3(O)C2,5.8,,8.18,8.95,1.8,8.68,,
Cc1occc1C(=O)/C=C/c1cc2c(n1C)[C@@H]1Oc3c(O)ccc4c3[C@@]13CCN(CC1CC1)[C@H](C4)[C@]3(O)C2,5.4,,8.21,8.94,1.3,8.83,,
